Results as given in patent US5158963A, “1-4-dihydropyridine derivative, process for preparing the same and pharmaceutical composition containing the same” (Kaken Pharmaceutical Co., Ltd., priority 1989, dated 1992).
“Also recorded” adds a separate entry of the source.

Legend:
[1] = test system: tonic extensive convulsion (maximal electroshock-induced seizures); assay: Activity against maximal electroshock-induced seizures in mice; type: in vivo, mouse (Slc:ddy male mice); details: oral
Text: In each group six Slc: ddy male mice weighing 26 to 31 g (5 weeks) were employed. Sixty minutes after oral administration of a test compound, corneal electrodes which were wet by physiological saline were contacted with both eyes of a mouse. Then, appearance of tonic extensive convulsion (TE) caused by electrifying under a stimulation condition of 50 mA, 1000 V and 0.2 sec by means of the apparatus of Woodburg & Davenport (made by Kyoto Keisokuki) was judged as indication.
Each of diphenylhydantoin, the compounds Nos. 2, 4, 5, 6, 7, 50, 51 and 52 of the present invention (refer Table 1, hereinafter the same) and nimodipine was suspended in a 0.5% solution of methyl cellulose to subject the test. Flunarizine was suspended in a 5% solution of gum arabic to subject the test.

[2] = test system: immobility time of forced swimming test; assay: Activity against immobility time of forced swimming test in mice; type: in vivo, mouse (Slc:ICR male mice); details: oral
Protocol: In each group 6 Slc:ICR male mice weighing 25 to 32 g (5 weeks) were bred at the room temperature of 22° to 24° C. under an environment of 60% humidity for 1 week, and then the bred mice were subjected to the following test. The test was carried out by monitering action to voluntarily escape with TV camera when a mouse was put into a cylinder of which inner diameter was 11 cm wherein 17 cm of water being the temperature 25° C. as added. As indication immobility time for 6 minutes was measured. In the test mice were employed which were compulsorily swun for 6 minutes in once per day for continuous 3 day. The investigation for immobility time was carried out by measuring immobility time for 6 minutes 1 hour after oral administration of a test compound. Each of test compound was suspended in a 0.5% solution of methyl cellulose used as a control group. Significant difference is shown with the significance level (* : p<0.05) obtained by comparing data of control group by LSD method.

[3] = test system: decapitation induced hypoxia; assay: Activity against decapitation induced hypoxia in mice; type: in vivo, mouse (Slc:ddy male mice); details: oral; for inhibition in vivo at 30 mg/kg / inhibition in vivo at 100 mg/kg / inhibition in vivo at 10 mg/kg: Mus musculus, 1 h, 60 min before decapitation, duration of gasping vs control, read-out: Inhibition rate
Protocol: In each group five Slc:ddy male mice weighing 20 to 22 g (4 weeks) were employed. Sixty minutes after oral administration of a test compound, mice were decapitated with a guillotine. After the decapitation, duration of gasping of head was measured with a timer (CT-916 Type, made by HATTORI SEIKO CO., LTD.) gearing into the guillotine.
Each of test compound was suspended in a 0.5% solution of methyl cellulose and administered. Inhibition rate was calculated by comparing with a 0.5% aqueous solution of methyl cellulose as control. That is, the inhibition rate was calculated by the following formula. [formula]

[4] = test system: blood pressure; assay: Activity for blood pressure in rats; type: in vivo, rat (Wister male rats); details: oral; for Blood pressure: 100 mg/kg; for activity for decreasing blood pressure (in words): normal rats
Protocol: In each group 4 Wister male rats weighing 200 to 300 g (10 to 15 weeks) were employed. The day before a test, rats were anesthetized with eter, and a polyethylene tube was inserted into aorta abdominalis of a rat. The other end of the polyethylene tube was led out of the rat's body. The led polyethylene tube was connected with a pressure transducer (RM-85, made by Yamamoto Kohden). Blood pressure was measured under a condition of no restriction.

[5] = in vivo; cited from earlier work

Row | SMILES | inhibitory activity against tonic extensive convulsion (share of cases) ([1]; 200 mg/kg) | effect on the immobility time (in words) ([2]; 200 mg/kg) | effect on immobility time of forced swimming test (in words) [2] | inhibition in vivo at 30 mg/kg [3] | inhibition in vivo at 100 mg/kg [3] | inhibition in vivo at 10 mg/kg [3] | further results
1 | C#Cc1cccc(C2C(C(=O)OCC)=C(C)NC(C)=C2C(=O)OCCC)c1 (stereo not shown) [Compound No. 5, 5-Ethoxycarbonyl-3-n-propoxycarbonyl-1,4-dihydro-2,6-dimethyl-4-(3-ethynylphenyl)pyridine] | two thirds | showed the effect on the immobility time | immobility time of forced swimming test reduced | – | – | – | –
2 | C#Cc1cccc(C2C(C(=O)OCC)=C(C)NC(C)=C2C(=O)OCC=CC)c1 (stereo not shown) [Compound No. 51, 5-Ethoxycarbonyl-3-crotyloxycarbonyl-1,4-dihydro-2,6-dimethyl-4-(3-ethynylphenyl)pyridine] | all cases | showed the effect on the immobility time | immobility time of forced swimming test reduced | 25.7% | 28.3% | – | –
3 | COC(=O)C1=C(C)NC(C)=C(C(=O)OCCN(C)Cc2ccccc2)C1c1cccc([N+](=O)[O-])c1 (stereo not shown) [Nicardipine, 2-(N-benzyl-N-methylamino)ethyl,methyl 2,6-dimethyl-4-(3-nitrophenyl)-1,4-dihydropyridine-3,5-dicarboxylate hydro chloride, reference compound] | – | – | – | 6.8% | – | 4.2% | Blood pressure ([4]; after 15 min.): 100.0 mmHg; Blood pressure ([4]; after 30 min.): 67.2 mmHg; Blood pressure ([4]; after 60 min.): 69.2 mmHg; Blood pressure ([4]; after 120 min.): 67.2 mmHg; activity for decreasing blood pressure (in words) [4]: strong antihypertensive activity; also recorded: remarkable activity for decreasing blood pressure
4 | COCCOC(=O)C1=C(C)NC(C)=C(C(=O)OC(C)C)C1c1cccc([N+](=O)[O-])c1 (stereo not shown) [Nimodipine, isopropyl, 2-methoxyethyl 2,6-dimethyl-4-(3-nitrophenyl)-1,4-dihydropyridine-3,5-dicarboxylate, reference compound] | No inhibitory activity | – | ineffective; also recorded: no effect | 9.3% | – | 2.1% | effect on maximal electroshock-induced seizures (in words) [1]: ineffective
5 | COC(=O)C1=C(C)NC(C)=C(C(=O)OC)C1c1ccccc1[N+](=O)[O-] [Nifedipine, dimethyl 2,6-dimethyl-4-(2-nitrophenyl)-1,4-dihydropyridine-3,5-dicarboxylate] | – | – | – | – | – | – | vasodepressor activity and coronary vasodilator activity [5]: strong
6 | C#Cc1cccc(C2C(C(=O)OC)=C(C)NC(C)=C2C(=O)OC(C)C)c1 (stereo not shown) [Compound No. 7, 5-Isopropoxycarbonyl-3-methoxycarbonyl-1,4-dihydro-2,6-dimethyl-4-(3-ethynylphenyl)pyridine] | a third | showed the effect on the immobility time | immobility time of forced swimming test reduced | – | – | – | –
7 | C#Cc1cccc(C2C(C(=O)OCC)=C(C)NC(C)=C2C(=O)OC(C)C)c1 (stereo not shown) [Compound No. 4, 5-Ethoxycarbonyl-3-isopropoxycarbonyl-1,4-dihydro-2,6-dimethyl-4-(3-ethynylphenyl)pyridine] | – | showed the effect on the immobility time | immobility time of forced swimming test reduced | 25.7% | – | 8.8% | inhibitory activity against tonic extensive convulsion (share of cases) ([1]; 50 mg/kg): two thirds; inhibitory activity against tonic extensive convulsion (share of cases) ([1]; 100 mg/kg): five sixths; effect on the immobility time (in words) ([2]; 50 mg/kg): showed the effect on the immobility time; effect on the immobility time (in words) ([2]; 100 mg/kg): showed the effect on the immobility time; Blood pressure ([4]; after 15 min.): 100.1 mmHg; Blood pressure ([4]; after 30 min.): 97.2 mmHg; Blood pressure ([4]; after 60 min.): 93.4 mmHg; Blood pressure ([4]; after 120 min.): 90.5 mmHg; activity for decreasing blood pressure (in words) [4]: very weak activity for decreasing blood pressure; effect in decapitation induced hypoxia (in words) [3]: same extent effect as that of flunarizine; also recorded: stronger effect than that of nimodipine and that of nicardipine
8 | C#Cc1cccc(C2C(C(=O)OCC)=C(C)NC(C)=C2C(=O)OCC=C)c1 (stereo not shown) [Compound No. 50, 5-Ethoxycarbonyl-3-allyloxycarbonyl-1,4-dihydro-2,6-dimethyl-4-(3-ethynylphenyl)pyridine] | all cases | showed the effect on the immobility time | immobility time of forced swimming test reduced | – | 31.1% | – | –
9 | C#Cc1cccc(C2C(C(=O)OC(C)C)=C(C)NC(C)=C2C(=O)OC(C)C)c1 [Compound No. 6, 3,5-Diisopropoxycarbonyl-1,4-dihydro-2,6-dimethyl-4-(3-ethynylphenyl)pyridine] | a third | showed the effect on the immobility time | immobility time of forced swimming test reduced | – | – | – | –
10 | C#Cc1cccc(C2C(C(=O)OC)=C(C)NC(C)=C2C(=O)OCC=C(C)C)c1 (stereo not shown) [Compound No. 52, 5-Methoxycarbonyl-3-(3-methyl-2-butenyloxycarbonyl)-1,4-dihydro-2,6-dimethyl-4-(3-ethynylphenyl)pyridine] | two thirds | showed the effect on the immobility time | immobility time of forced swimming test reduced | – | 26.4% | – | –
